Assay results: patent US20100210559A1, “TRAP-14 AS A THERAPEUTIC AGENT” (priority 2007, published 2010)
No end group written: not given here.

System: drug-resistant Mycobacterium tuberculosis
Settings: drug-resistant Mycobacterium tuberculosis (PAS, streptomycin, INH); peptide 10 micrograms per ml; seven days

Substance: SFLLRNPNDKYEPF-OH [TRAP-14]
- % inhibition: 0.0%
